The source of these data is patent EP4711366A1, “PYRIMIDO MACROHETEROCYCLIC COMPOUND AS WEE1-YES DUAL-TARGET INHIBITOR AND USE THEREOF” (Mindrank AI Ltd., priority 2023, dated 2024).

Each structure is given as a SMILES string.

In one assay the target is YES1 kinase (Homo sapiens, UniProt P07947). Description: YES1 protein kinase inhibitory activity assay (HTRF). Format: biochemical. The conditions noted are these: for IC50: HTRF, YES1 kinase, ATP 10 µM; for inhibition of the Yes target (in words): summary statement on the assay results. How it is done: In this experiment, the capability of the compound MRANK-106 of the present disclosure to inhibit kinase activity was assessed by an HTRF method using a drug screening system based on the YES1 kinase.
YES1 kinase, sequence (P07947 whole entry): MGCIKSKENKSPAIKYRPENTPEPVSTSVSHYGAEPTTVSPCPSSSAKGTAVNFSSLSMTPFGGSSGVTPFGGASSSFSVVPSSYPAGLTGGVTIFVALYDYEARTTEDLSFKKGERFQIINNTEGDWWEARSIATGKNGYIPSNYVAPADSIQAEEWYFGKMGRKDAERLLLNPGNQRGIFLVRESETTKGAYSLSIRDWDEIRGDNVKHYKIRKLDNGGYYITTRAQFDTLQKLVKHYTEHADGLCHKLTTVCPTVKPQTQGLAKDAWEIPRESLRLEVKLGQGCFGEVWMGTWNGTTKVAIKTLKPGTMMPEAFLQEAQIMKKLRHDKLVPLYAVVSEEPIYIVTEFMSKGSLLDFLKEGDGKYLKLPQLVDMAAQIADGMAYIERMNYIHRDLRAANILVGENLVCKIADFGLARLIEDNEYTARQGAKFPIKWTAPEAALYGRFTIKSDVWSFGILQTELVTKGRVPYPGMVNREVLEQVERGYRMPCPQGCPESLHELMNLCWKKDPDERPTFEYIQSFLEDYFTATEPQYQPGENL
Table 3-1. Information about reagents and consumables
The enzymatic activity conditions and HTRF system formulation are shown in Table 3-3; the experimental conditions for the kinase activity assay are shown in Table 3-4. Table 3-3. HTRF system formulation
Table 3-4. The experimental conditions for the kinase activity assay
The test compound MRANK-106 was dissolved in DMSO, and the solution was vortexed and shaken for thorough mixing. The solution was serially diluted 3-fold with DMSO, with the initial concentration being 503 nM.
① A 2× ATP/substrate solution and a 2× kinase solution were formulated using a kinase reaction buffer.
② 50 nL of the compound dilution was transferred to a 384 detection plate using Echo 655. After centrifugation, 2.5 µL of a 2× kinase solution was added to the 384 detection plate. The plate was centrifuged at 1000 rpm for 1 min and incubated at 25 °C for 10 min.
② 2.5 µL of the 2× substrate and ATP solution was added to the 384 detection plate, and the plate was centrifuged at 1000 rpm for 1 min and incubated at 25 °C for 60 min.
④ A 2× XL665 and antibody detection reagent was formulated using a detection buffer.
⑤ 5 µL of a kinase detection reagent was added to the detection plate, and the plate was incubated at 25 °C. The plate was centrifuged at 1000 rpm for 1 min and incubated at 25 °C for 1 h.
⑥ The fluorescence signals at 620 nm (Cryptate) and 665 nm (XL665) were read using a BMG high-throughput drug-screening multi-mode microplate reader.
With the reading of the negative control set as an inhibition rate of 0% and the reading of the positive control set as an inhibition rate of 100%, the inhibition rate of each test solution was calculated using the following formula: [formula] • Datapositive control: the average of the positive control well values • Datanegative control : the average of the negative control well values
The IC50 (half maximal inhibitory concentration) of the compound was obtained using the following nonlinear fitting formulas: Y = Bottom + (Top−Bottom)/(1+10^(∧)((LogIC50−X)*HillSlope)) [formula] • X: the log value of the compound concentration • Y: the inhibition rate (% inh) of the compound
The Z' factor calculation equation: Z′ = 1−3(SDmin+SDmax)/(AVEmax−AVEmin) [formula] where: • Min is the positive control Data value, and Max is the negative control DMSO Data value; • SD stands for standard deviation, and AVE stands for average.
For orientation: Time-resolved FRET reads energy transfer from a long-lived donor to a nearby acceptor.

Another assay addresses Wee1 kinase (Homo sapiens, UniProt P30291). The assay can be described thus: WEE1 protein kinase inhibitory activity assay (ADP-GLO luminescence). It counts as biochemical. The settings on record: for inhibition of the Weel target (in words): summary statement on the assay results; for IC50: Wee1 10 ng/well, ATP 10 µM, 3 h, 37 °C. How it is done:
The influence of the compound MRANK-106 of the present disclosure on the kinase activity of Weel was assessed using an in vitro kinase reaction system.
Table 2-1. Information about reagents and consumables
① 1× kinase buffer: A 5× kinase buffer was diluted with ddH2O to make a 1× kinase buffer. Table 2-3. The reagent components added to the 1× kinase buffer
③ 5× enzyme working solution: The optimization of the enzyme concentration had been completed in previous work, and the concentration of the reagent used in the screening is shown in Table 2-4. A 5× enzyme working solution of the enzyme was formulated using the 1× kinase buffer.
④ Compound formulation: A 10 mM mother liquor was formulated using DMSO, aliquoted, and then stored at -20 °C. Immediately before use, the mother liquor was thawed, diluted with DMSO to 1 mM, serially diluted 4-fold to 10 concentration points, and then 40-fold diluted with the 1× kinase buffer to give a 2.5× working solution. Table 2-4. The experimental conditions for the kinase activity assay
After the above reagents were formulated and equilibrated to room temperature, 4 µL of the diluted solution of the compound to be tested and 2 µL of the formulated enzyme solution were added to reaction wells. After shaking and centrifugation, the plate was incubated at room temperature for 15 min, and 4 µL of the ATP solution was then added to start a kinase reaction. After 3 h of reaction at 37 °C, 10 µL of an ADP-GLO reagent was added. After thorough mixing, the mixture was left to react at room temperature for 40 min, and 20 µL of a detection reagent was then added. After 30 min of reaction at room temperature, the luminescence signals were detected using a SpectraMax L instrument. Two independent duplicate assays were performed. The inhibition rate of each well was calculated based on all activity wells and background signal wells, with an average calculated for duplicate wells. Meanwhile, the inhibition rate was plotted using the professional graphing and analysis software PRISM 9.0, and the IC50 was calculated.
The inhibition rates of the compounds to be tested against the kinase activity of Wee1 were calculated using the following formula: Inhibition rate% = (Lumvehicle−Lumcompound)/(Lumvehicle−Lumblank) × 100% [formula] • Lumcompound: the luminescence of the sample treatment groups • Lumvehicle: the luminescence of the solvent control group • Lumblank: the luminescence of the blank group
On the technique in general: ADP-Glo first removes unused ATP, then detects ADP through luciferase.

Wee1 kinase, sequence (P30291 whole entry): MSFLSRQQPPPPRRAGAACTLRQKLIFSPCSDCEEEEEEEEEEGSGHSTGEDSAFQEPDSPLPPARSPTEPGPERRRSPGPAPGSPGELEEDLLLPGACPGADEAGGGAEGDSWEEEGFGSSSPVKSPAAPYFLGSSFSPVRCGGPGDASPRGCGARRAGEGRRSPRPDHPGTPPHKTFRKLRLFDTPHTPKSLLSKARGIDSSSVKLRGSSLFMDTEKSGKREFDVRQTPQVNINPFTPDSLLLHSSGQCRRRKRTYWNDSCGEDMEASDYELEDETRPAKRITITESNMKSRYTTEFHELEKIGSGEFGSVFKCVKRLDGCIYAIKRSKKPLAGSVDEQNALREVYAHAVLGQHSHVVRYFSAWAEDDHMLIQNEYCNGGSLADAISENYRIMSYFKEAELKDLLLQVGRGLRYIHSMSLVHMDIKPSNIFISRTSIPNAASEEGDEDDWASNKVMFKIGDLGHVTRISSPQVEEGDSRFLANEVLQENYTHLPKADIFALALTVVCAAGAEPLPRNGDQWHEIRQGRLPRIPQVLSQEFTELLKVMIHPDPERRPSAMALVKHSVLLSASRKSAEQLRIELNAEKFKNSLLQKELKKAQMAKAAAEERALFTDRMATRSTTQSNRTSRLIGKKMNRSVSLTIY

As to `CCOP1(=O)CCN(c2ccc(Nc3ncc4c(=O)n5n(c4n3)-c3cccc(n3)C(C)(O)CCC=CC5)cc2F)CC1` (stereo not drawn) [Compound 180, (Z)-2-((4-(4-ethoxy-4-oxido-1,4-azaphosphinan-1-yl)-3-fluorophenyl)amino)-12-hydroxy-12-methyl-7,10,11,12-tetrahydro-5H-13,17-(azeno)pyrimido[4',5':3,4]pyrazolo[1,2-a][1,2]diazacyclotridecin-5-one], at YES1 kinase, half-maximal inhibition (IC50) was put at 0.0525 µM and the “inhibition of the Yes target (in words)” value is “strongly inhibited”. The “inhibition of the Weel target (in words)” value at Wee1 kinase is “strongly inhibited”.

On to `Cc1cc(Nc2ncc3c(=O)n4n(c3n2)-c2cccc(n2)C(C)(O)CC/C=C\C4)ccc1OC1CC2CN(C)CC2C1` (single isomer, unassigned) [Compound 224A], for which the concentration for half-maximal inhibition (IC50) against Wee1 kinase came to 0.0128 µM.

For `Cc1cc(Nc2ncc3c(=O)n4n(c3n2)-c2cccc(n2)C(C)(O)CC/C=C\C4)ccc1O[C@@H]1CCN(C)C1` (stereo partly drawn) [Compound 183, (R,Z)-12-hydroxy-12-methyl-2-((3-methyl-4-(((R)-1-methylpyrrolidin-3-yl)oxy)phenyl)amino)-7,10,11,12-tetrahydro-5H-13,17-(azeno)pyrimido[4',5':3,4]pyrazolo[1,2-a][1,2]diazacyclotridecin-5-one], inhibition on Wee1 kinase was half-maximal at 0.0161 µM (IC50).

In turn, `Cc1cc(Nc2ncc3c(=O)n4n(c3n2)-c2cccc(n2)C(C)(O)CCC=CC4)ccc1NC1CC2CCC(C1)N2C` (single isomer, unassigned) [Compound 225A] had a half-inhibitory concentration (IC50) against Wee1 kinase of 0.0204 µM.

In turn, `Cc1cc(Nc2ncc3c(=O)n4n(c3n2)-c2cccc(n2)C(C)(O)CC/C=C\C4)ccc1O[C@H]1CCN(C)C1` (stereo partly drawn) [Compound 186, (R,Z)-12-hydroxy-12-methyl-2-((3-methyl-4-(((S)-1-methylpyrrolidin-3-yl)oxy)phenyl)amino)-7,10,11,12-tetrahydro-5H-13,17-(azeno)pyrimido[4',5':3,4]pyrazolo[1,2-a][1,2]diazacyclotridecin-5-one] yielded an IC50 against Wee1 kinase of 0.0187 µM.

Compound `CN(C)S(=O)(=O)c1ccc2c(c1)/C(=C/c1cc3c([nH]1)CCCC3)C(=O)N2` [SU6656] returned an IC50 at YES1 kinase of 0.043 µM.

On to `CCOP1(=O)CCN(c2ccc(Nc3ncc4c(=O)n5n(c4n3)-c3cccc(n3)C(C)(O)CCC=CC5)cc2)CC1` (stereo not drawn) [Compound 181, (Z)-2-((4-(4-ethoxy-4-oxido-1,4-azaphosphinan-1-yl)phenyl)amino)-12-hydroxy-12-methyl-7,10,11,12-tetrahydro-5H-13,17-(azeno)pyrimido[4',5':3,4]pyrazolo[1,2-a][1,2]diazacyclotridecin-5-one], for which the IC50 was found to be 0.117 µM against YES1 kinase and 0.0332 µM on Wee1 kinase.

For the compound `Cc1cc(Nc2ncc3c(=O)n4n(c3n2)-c2cccc(n2)C(C)(O)CCC=CC4)ccc1OC1CCN(CC(F)(F)F)CC1` (stereo not drawn) [Compound 206, (Z)-12-hydroxy-12-methyl-2-((3-methyl-4-((1-(2,2,2-trifluoroethyl)piperidin-4-yl)oxy)phenyl)amino)-7,10,11,12-tetrahydro-5H-13,17-(azeno)pyrimido[4',5':3,4]pyrazolo[1,2-a][1,2]diazacyclotridecin-5-one], half-maximal inhibition against YES1 kinase (IC50) required 0.13 µM.

For the compound `[2H]C([2H])([2H])N1CCC(Oc2ccc(Nc3ncc4c(=O)n5n(c4n3)-c3cccc(n3)[C@@](C)(O)CCC=CC5)cc2C)CC1` (single isomer, unassigned) [Compound 171B], the figures for the IC50 against YES1 kinase and on Wee1 kinase were 0.346 µM and 0.0054 µM, respectively.

Compound `Cc1cc(Nc2ncc3c(=O)n4n(c3n2)-c2cccc(n2)[C@@](C)(O)CCCCC4)ccc1OC1CCN(C)CC1` [Compound 29, (S)-12-hydroxy-12-methyl-2-((3-methyl-4-((1-methylpiperidin-4-yl)oxy)phenyl)amino)-7,8,9,10,11,12-hexahydro-5H-13,17-(azeno)pyrimido[4',5':3,4]pyrazolo[1,2-a][1,2]diazacyclotridecin-5-one] showed an IC50 at Wee1 kinase of 0.067 µM.

Consider `Cc1cc(Nc2ncc3c(=O)n4n(c3n2)-c2cccc(n2)[C@@](C)(O)CCC=CC4)ccc1OC1CCN(C)CC1` [Compound 134, (S,Z)-12-hydroxy-12-methyl-2-((3-methyl-4-((1-methylpiperidin-4-yl)oxy)phenyl)amino)-7,10,11,12-tetrahydro-5H-13,17-(azeno)pyrimido[4',5':3,4]pyrazolo[1,2-a][1,2]diazacyclotridecin-5-one], for which, on YES1 kinase, inhibition was half-maximal at 0.0689 µM (IC50) and the “inhibition of the Yes target (in words)” value is on record as “strongly inhibited”. For the same compound, on Wee1 kinase, the half-maximal inhibitory concentration (IC50) was determined as 0.021 µM and the “inhibition of the Weel target (in words)” value is recorded as “strongly inhibited”.

As for `CN1CC2CC(Oc3ccc(Nc4ncc5c(=O)n6n(c5n4)-c4cccc(n4)C(C)(O)CCC=CC6)cc3C(F)(F)F)CC2C1` (stereo not drawn) [Compound 223, (Z)-12-hydroxy-12-methyl-2-((4-((2-methyloctahydrocyclopenta[c]pyrrol-5-yl)oxy)-3-(trifluoromethyl)phenyl)amino)-7,10,11,12-tetrahydro-5H-13,17-(azeno)pyrimido[4',5':3,4]pyrazolo[1,2-a][1,2]diazacyclotridecin-5-one], on YES1 kinase, the IC50 came out at 0.0218 µM and the “inhibition of the Yes target (in words)” value is on record as “strongly inhibited”. In addition, at Wee1 kinase, the IC50 was found to be 0.0187 µM and the “inhibition of the Weel target (in words)” value was “strongly inhibited”.

As for `Cc1cc(Nc2ncc3c(=O)n4n(c3n2)-c2cccc(n2)C(C)(O)CCC=CC4)ccc1CN1CCN(C)CC1=O` (stereo not drawn) [Compound 199, (Z)-12-hydroxy-12-methyl-2-((3-methyl-4-((4-methyl-2-oxopiperazin-1-yl)methyl)phenyl)amino)-7,10,11,12-tetrahydro-5H-13,17-(azeno)pyrimido[4',5':3,4]pyrazolo[1,2-a][1,2]diazacyclotridecin-5-one], at YES1 kinase, the half-inhibitory concentration (IC50) stood at 0.0591 µM and the “inhibition of the Yes target (in words)” value was “strongly inhibited”. Further, the “inhibition of the Weel target (in words)” value at Wee1 kinase is recorded as “strongly inhibited”.

`CN1CCN(C(=O)c2ccc(Nc3ncc4c(=O)n5n(c4n3)-c3cccc(n3)C(C)(O)CC/C=C\C5)cc2)CC1` [Compound 185, (R,Z)-12-hydroxy-12-methyl-2-((4-(4-methylpiperazine-1-carbonyl)phenyl)amino)-7,10,11,12-tetrahydro-5H-13,17-(azeno)pyrimido[4',5':3,4]pyrazolo[1,2-a][1,2]diazacyclotridecin-5-one]: at YES1 kinase, the IC50 came to 0.129 µM.

At Wee1 kinase, `Cc1cc(Nc2ncc3c(=O)n4n(c3n2)-c2cccc(n2)C(C)(O)CC/C=C\C4)ccc1CN1CCN(C)CC1` (single isomer, unassigned) [Compound 219A] displayed a half-inhibitory concentration (IC50) of 0.0131 µM.

As a reminder, the IC50 is the concentration that gives 50% inhibition. A higher IC50 goes with a need for much substance.
